Experimental findings from US20150224177A1 (priority 2014, published 2015) are described below.

The test system of experiment [1] is Burkholderia mallei. Kind of experiment: microbe, parasite or virus in culture. Type of experiment: cell-based. The note with it: for MIC: Burkholderia mallei.
For experiment [2], the system named is Yersinia pestis. Kind of experiment: microbe, parasite or virus in culture. In kind it is cell-based. The note with it: for MIC: Yersinia pestis.
Experiment [3] has as its system B. pseudomallei isolates. As to the kind of experiment: microbe, parasite or virus in culture. Type of experiment: cell-based, Burkholderia pseudomallei.
The test system of experiment [4] is Bacillus anthracis. Type of experiment: cell-based.
Experiment [5] relates to B. pseudomallei strains 1026b and MSHR 305. Type of experiment: cell-based, Burkholderia pseudomallei.
Setting [6] is: read-out: MIC values (limit of detection) for OSCN^− with and without bLF.
[7] abbreviates: read-out: Minimal Inhibitory Concentration.

In brackets after ≈: the same amount, converted by molar mass. Read-outs that look alike come from different tables or passages of the source. Some results are limits rather than exact numbers.

Turning to `N#CSO` [OSCN^−, hypothiocyanite], in experiment [1], the “inhibition of growth, result in words” value is listed as “very effective against both strains tested”. For the same compound, the MIC in experiment [1] (setting [6]) is no more than 25.9 µg/mL. Also, the MIC in experiment [1] (setting [7]) is no more than 25.9 µg/mL. Besides, in experiment [2], the “inhibition of growth, result in words” value is on record as “very effective against both strains tested”. In addition, the MIC in experiment [2] (setting [6]) is no more than 30.3 µg/mL. Moreover, the MIC in experiment [2] (setting [7]) was no more than 30.3 µg/mL. Besides, in experiment [3], the “concentration of OSCN^− alone that inhibited all isolates” value was “less than 63.3 μg/mL” and the “inhibition of growth, overall result in words” value is “effective in vitro to inhibit the growth”. Further, in experiment [3] (Burkholderia pseudomallei, NCTC13392, read-out: Minimal Inhibitory Concentration), the MIC lay within 48.7 to 61.2 µg/mL (≈ 649 to 815 µM). In experiment [4], the “inhibition of growth, result in words” value is recorded as “MICs at or below the detection limit”. Moreover, in experiment [5], the “bacterial counts (limit of detection) through 6 h post inoculation” value was less than 33 CFU/mL; the “bactericidal effect, overall result in words” value is reported as “substantial bactericidal effect”; the “detectable CFUs from T2h to T6h” value is given as “no detectable CFUs”; the “growth at T24h” value is reported as “no MSHR 305 growth was detected”. In experiment [5], the “kill curve: evolution of microbial load during time” value is given as “immediate decrease of microbial load after 2 hours”, the “reduction at T24h as compared with the untreated controls” value was in the range of 1.5 to 2 log10, the “reduction at T24h compared with the untreated control” value was roughly 2.5 log10 and the “reduction of final bacterial concentration at T24h as compared with the untreated controls” value is given as “at least 1.5 log10”.
